Assay results from patent publication US11548900B2, “Oxazino-quinazoline and oxazino-quinoline type compound, preparation method and uses thereof” (BEIJING SCITECH-MQ PHARMACEUTICALS LIMITED, priority 2018, dated 2023).

How the values were obtained:
HER2 kinase = HER2 kinase (Homo sapiens (Human), UniProt P04626); assay: Inhibition of HER2 kinase activity (ULight-labeled PolyGT substrate); type: biochemical; settings: HER2 kinase 10 nM, ATP 10 μM, 2 hours
Method in brief: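 HER2 kinase at 10 nM with 10 μM ATP and 100 nM ULight-PolyGT, 5 min enzyme–compound preincubation, then 2 h reaction at room temperature in the dark. Compounds at 11 3-fold concentrations, 2.5 μM top to 0.042 nM, 1% DMSO, duplicates. TR-FRET 665/615 ratio; IC50 from inhibition versus DMSO and no-compound controls.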

EGFR kinase = EGFR kinase (Homo sapiens (Human), UniProt P00533); assay: Inhibition of EGFR kinase activity (ULight-labeled JAK-1 (Tyr1023) peptide substrate); type: biochemical; settings: EGFR kinase 0.35 nM, ATP 150 μM, 2 hours
Chain of EGFR kinase (P00533 25-1210): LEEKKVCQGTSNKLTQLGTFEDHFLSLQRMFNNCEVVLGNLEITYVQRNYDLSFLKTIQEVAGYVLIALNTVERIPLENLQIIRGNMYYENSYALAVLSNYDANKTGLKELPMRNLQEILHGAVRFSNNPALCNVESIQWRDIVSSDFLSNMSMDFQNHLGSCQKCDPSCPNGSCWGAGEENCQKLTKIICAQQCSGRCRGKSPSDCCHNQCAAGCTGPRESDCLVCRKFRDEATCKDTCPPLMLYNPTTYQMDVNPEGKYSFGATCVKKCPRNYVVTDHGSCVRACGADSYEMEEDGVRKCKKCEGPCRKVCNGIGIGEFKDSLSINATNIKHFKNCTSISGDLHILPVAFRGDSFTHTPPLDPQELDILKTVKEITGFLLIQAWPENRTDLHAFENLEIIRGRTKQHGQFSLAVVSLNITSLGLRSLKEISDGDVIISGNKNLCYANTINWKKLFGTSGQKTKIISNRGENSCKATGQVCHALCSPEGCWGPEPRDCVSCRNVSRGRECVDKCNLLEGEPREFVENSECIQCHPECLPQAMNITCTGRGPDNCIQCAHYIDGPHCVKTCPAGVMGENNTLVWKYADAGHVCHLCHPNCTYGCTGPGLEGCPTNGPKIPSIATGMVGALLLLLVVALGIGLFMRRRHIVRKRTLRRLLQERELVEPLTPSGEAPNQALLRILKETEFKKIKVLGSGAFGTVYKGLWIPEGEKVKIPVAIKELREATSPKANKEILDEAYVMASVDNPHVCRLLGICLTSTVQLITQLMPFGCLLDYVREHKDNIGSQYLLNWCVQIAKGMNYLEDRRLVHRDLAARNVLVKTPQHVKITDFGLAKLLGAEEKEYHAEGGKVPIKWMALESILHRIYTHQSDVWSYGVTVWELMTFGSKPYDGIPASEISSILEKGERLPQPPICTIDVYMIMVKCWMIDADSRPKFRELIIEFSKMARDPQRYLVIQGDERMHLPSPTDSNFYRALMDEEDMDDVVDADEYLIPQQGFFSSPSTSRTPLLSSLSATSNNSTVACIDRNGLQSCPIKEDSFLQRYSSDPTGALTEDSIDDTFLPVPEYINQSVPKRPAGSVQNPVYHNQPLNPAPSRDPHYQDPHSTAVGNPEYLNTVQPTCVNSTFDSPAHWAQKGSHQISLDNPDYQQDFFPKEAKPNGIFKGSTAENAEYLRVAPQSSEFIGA
Protocol: The assay for the inhibition of EGFR and HER2 kinase activity by small molecular compounds was carried out using the method as follows:
1) Dilution of the compounds
In a 96-well plate a, the compounds were diluted with DMSO using a 3-fold gradient dilution to form 11 concentrations, the 12th concentration is pure DMSO (as a positive control); and in a new 96-well plate b the above solutions were diluted 25 times with ultrapure water (DMSO concentration is 4%).
2) Transferring the compounds to 384-well plate
The compound solutions diluted with ultrapure water in the 96-well plate b above was transferred to the corresponding wells of a 384-well plate in duplicate.
3) Addition of 4×kinase solution: 2.5 μl of the above 4× kinase solution was taken using multichannel pipette and added to the corresponding reaction wells of the 384-well plate, mixed well and pre-reacted at room temperature for 5 minutes.
4) Addition of 2×substrate/ATP mixed solution: 5 μl of the above 2×substrate/ATP mixed solution was taken using multichannel pipette and added to the corresponding reaction wells of the 384-well plate.
5) Negative control: negative control wells were set in the 384-well plate, and 2.5 μl 4×substrate, 2.5 μl 4×enzyme solution, 2.5 μl 1×Kinase Assay Buffer and 2.5 μl ultrapure water containing 4% DMSO were added to each well.
6) Mixed by centrifugation and kept at room temperature for 2 hours in the dark.
7) Termination of the enzymatic reaction:
5 μl of the above 4× stop solution was pipetted to the corresponding wells of the 384-well plate, centrifuged and mixed, and reacted at room temperature for 5 minutes.
5 μl of the above 4× detection solution was pipetted into the corresponding wells of the 384-well plate, centrifuged and mixed, and reacted at room temperature for 1 hour.
9) The 384-well plate was placed into a microplate reader and the signal was detected using the corresponding program.
10) IC50 analysis: Well reading value=10000*EU665 value/EU615 value Inhibition rate=(reading value of positive control well−reading value of experimental well)/(reading value of positive control well−reading value of negative control well)*100% Corresponding IC50s can be calculated by entering the drug concentrations and the corresponding inhibition rates into GraphPad Prism 5.
Conditions of experiment for screening EGFR kinase inhibitory molecules:
The final concentration of EGFR kinase in the reaction system is 0.35 nM, and the final concentration of ATP is 150 μM, the final concentration of substrate ULight™-labeled JAK-1 (Tyr1023) Peptide is 100 nM, and the enzymatic reaction time is 2 hours.
The maximum final concentration of the compound in the reaction system is 2.5 μM, 11 concentrations were made with a 3-fold gradient dilution, and the minimal final concentration is 0.042 nM. The final concentration of DMSO is 1%.

BT474 cells = assay: Inhibition of cell proliferation, BT474 (CCK-8, 72 h); type: cell-based; settings: Homo sapiens, BT-474, 72 h incubation
Protocol: The assay for the inhibition of cell proliferation by small molecular compounds was carried out using the method as follows:
1. 600 μL pancreatin was added to a T75 cell culture flask, which was digested in a 37° C. incubator for about 1 min before 5 mL of DMEM complete culture solution was added, blew evenly, transferred to a 15 mL centrifuge tube, and centrifuged at 1000 rpm for 4 min;
2. The supernatant was removed and 5 mL DMEM complete culture solution was added, blew evenly, and 10 μL cell suspension was taken and mixed with 10 μL 0.4% Trypan Blue, and counted using a cell counter;
3. BT474 and HCC827 cell lines were seeded in 96-well plates at a cell density of 10,000 and 3000 cells/well/80 μL, respectively, and cultured overnight. Only sterile water was added to the 36 wells on the periphery of the 96-well plate without adding cells, and only the 60 wells in the center of the 96-well plate were used for cell assays and controls;
4. Dilution of compounds: the compounds were diluted with a 3-fold dilution to make 10 concentrations in total with an initial concentration of 10 mM;
5. 20 μL of different compounds with different concentrations were added to each well, and 20 μL of complete culture solution was added to the remaining wells. The final concentration of DMSO in each well is 0.25%;
6. After 72 h of incubation, 10 μL CCK-8 reagent was added to each well, and incubated at 37° C. for 1-2 h; and the OD value was read at 450 nm;
7. Cell survival rate (%)=[(As−Ab)/(Ac−Ab)]*100%
As: Assay well (medium containing cell, CCK-8, compound)
Ac: Control well (medium containing cell, CCK-8)
Ab: Blank well (CCK-8, medium without cell and compound)
8. The value was imported into Graphpad Prism5 software for the calculation of IC50s (compound concentration at which 50% maximum survival rate is observed).

Chain of HER2 kinase (P04626 23-1255): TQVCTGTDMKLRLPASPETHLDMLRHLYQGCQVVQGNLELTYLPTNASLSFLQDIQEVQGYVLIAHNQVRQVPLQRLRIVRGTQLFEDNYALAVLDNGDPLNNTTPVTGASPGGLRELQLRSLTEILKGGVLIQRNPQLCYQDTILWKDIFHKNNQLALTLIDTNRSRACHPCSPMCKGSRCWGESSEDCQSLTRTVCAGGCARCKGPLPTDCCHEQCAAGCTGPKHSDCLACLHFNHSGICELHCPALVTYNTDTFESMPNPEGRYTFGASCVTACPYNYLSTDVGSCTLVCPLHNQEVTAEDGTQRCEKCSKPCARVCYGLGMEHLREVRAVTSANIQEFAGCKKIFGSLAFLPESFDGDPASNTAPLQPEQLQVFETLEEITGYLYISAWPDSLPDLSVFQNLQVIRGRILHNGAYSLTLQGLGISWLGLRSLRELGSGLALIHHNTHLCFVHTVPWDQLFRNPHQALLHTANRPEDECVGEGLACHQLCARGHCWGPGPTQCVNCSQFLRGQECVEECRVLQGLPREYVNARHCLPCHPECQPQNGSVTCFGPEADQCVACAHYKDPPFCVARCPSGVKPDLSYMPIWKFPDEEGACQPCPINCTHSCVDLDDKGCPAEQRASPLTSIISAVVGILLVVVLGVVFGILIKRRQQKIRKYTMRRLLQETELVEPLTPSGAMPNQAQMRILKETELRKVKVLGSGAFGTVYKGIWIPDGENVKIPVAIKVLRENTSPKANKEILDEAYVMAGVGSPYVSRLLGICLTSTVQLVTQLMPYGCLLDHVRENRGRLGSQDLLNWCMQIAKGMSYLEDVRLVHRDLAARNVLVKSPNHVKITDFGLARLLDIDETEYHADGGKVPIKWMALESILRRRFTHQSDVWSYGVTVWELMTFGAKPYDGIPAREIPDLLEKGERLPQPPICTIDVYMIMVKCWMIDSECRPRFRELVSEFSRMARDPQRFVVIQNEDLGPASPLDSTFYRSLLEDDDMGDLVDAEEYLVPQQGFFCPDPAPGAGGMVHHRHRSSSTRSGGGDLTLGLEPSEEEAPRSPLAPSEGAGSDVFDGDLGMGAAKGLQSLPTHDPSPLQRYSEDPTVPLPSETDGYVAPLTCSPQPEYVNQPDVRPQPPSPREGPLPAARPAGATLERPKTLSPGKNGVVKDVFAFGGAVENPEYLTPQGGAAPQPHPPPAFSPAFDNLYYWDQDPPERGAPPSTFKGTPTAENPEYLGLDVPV

Compound | IC50 (HER2 kinase) | IC50 (EGFR kinase) | IC50 (BT474 cells)
CN(C/C=C/C(=O)N1CCOc2c1ccc1ncnc(Nc3ccc(Oc4ccn5ncnc5c4)c(Cl)c3)c21)C1CCC1 [Example 129, (E)-1-(10-((4-([1,2,4]triazolo[1,5-a]pyridin-7-yloxy)-3-chlorophenyl)amino)-2,3-dihydro-4H-[1,4]oxazino[2,3-f]quinazolin-4-yl)-4-(cyclobutyl(methyl)amino)but-2-en-1-one] | ≤ 50 nM | 50 to 500 nM | ≤ 50 nM
COCCN(C)C/C=C/C(=O)N1CCOc2c1ccc1ncnc(Nc3ccc(Oc4ccn5ncnc5c4)c(Cl)c3)c21 [Example 130, (E)-1-(10-((4-([1,2,4]triazolo[1,5-a]pyridin-7-yloxy)-3-chlorophenyl)amino)-2,3-dihydro-4H-[1,4]oxazino[2,3-f]quinazolin-4-yl)-4-((2-methoxyethyl)(methyl)amino)but-2-en-1-one] | ≤ 50 nM | 50 to 500 nM | ≤ 50 nM
CCN(CC)C/C=C/C(=O)N1CCOc2c1ccc1ncnc(Nc3ccc(Oc4ccn5ncnc5c4)c(Cl)c3)c21 [Example 131, (E)-1-(10-((4-([1,2,4]triazolo[1,5-a]pyridin-7-yloxy)-3-chlorophenyl)amino)-2,3-dihydro-4H-[1,4]oxazino[2,3-f]quinazolin-4-yl)-4-(diethylamino)but-2-en-1-one] | ≤ 50 nM | 50 to 500 nM | ≤ 50 nM
Cc1cc(Nc2ncnc3ccc4c(c23)OCCN4C(=O)/C=C/CN2CCN(C)CC2)ccc1Oc1ccn2ncnc2c1 [Example 132, (E)-1-(10-((4-([1,2,4]triazolo[1,5-a]pyridin-7-yloxy)-3-methylphenyl)amino)-2,3-dihydro-4H-[1,4]oxazino[2,3-f]quinazolin-4-yl)-4-(4-methylpiperazin-1-yl)but-2-en-1-one] | ≤ 50 nM | 50 to 500 nM | ≤ 50 nM
Cc1cc(Nc2ncnc3ccc4c(c23)OCCN4C(=O)/C=C/CN(C)C(C)C)ccc1Oc1ccn2ncnc2c1 [Example 133, (E)-1-(10-((4-([1,2,4]triazolo[1,5-a]pyridin-7-yloxy)-3-methylphenyl)amino)-2,3-dihydro-4H-[1,4]oxazino[2,3-f]quinazolin-4-yl)-4-(isopropyl(methyl)amino)but-2-en-1-one] | ≤ 50 nM | 500 to 5000 nM | ≤ 50 nM
Cc1cc(Nc2ncnc3ccc4c(c23)OCCN4C(=O)/C=C/CN2CCCCC2)ccc1Oc1ccn2ncnc2c1 [Example 134, (E)-1-(10-((4-([1,2,4]triazolo[1,5-a]pyridin-7-yloxy)-3-methylphenyl)amino)-2,3-dihydro-4H-[1,4]oxazino[2,3-f]quinazolin-4-yl)-4-(piperidin-1-yl)but-2-en-1-one] | ≤ 50 nM | 50 to 500 nM | ≤ 50 nM
Cc1cc(Nc2ncnc3ccc4c(c23)OCCN4C(=O)/C=C/CN(C)C2CCC2)ccc1Oc1ccn2ncnc2c1 [Example 135, (E)-1-(10-((4-([1,2,4]triazolo[1,5-a]pyridin-7-yloxy)-3-methylphenyl)amino)-2,3-dihydro-4H-[1,4]oxazino[2,3-f]quinazolin-4-yl)-4-(cyclobutyl(methyl)amino)but-2-en-1-one] | ≤ 50 nM | 50 to 500 nM | ≤ 50 nM
COCCN(C)C/C=C/C(=O)N1CCOc2c1ccc1ncnc(Nc3ccc(Oc4ccn5ncnc5c4)c(C)c3)c21 [Example 136, (E)-1-(10-((4-([1,2,4]triazolo[1,5-a]pyridin-7-yloxy)-3-methylphenyl)amino)-2,3-dihydro-4H-[1,4]oxazino[2,3-f]quinazolin-4-yl)-4-((2-methoxyethyl)(methyl)amino)but-2-en-1-one] | ≤ 50 nM | 50 to 500 nM | ≤ 50 nM
CCN(CC)C/C=C/C(=O)N1CCOc2c1ccc1ncnc(Nc3ccc(Oc4ccn5ncnc5c4)c(C)c3)c21 [Example 137, (E)-1-(10-((4-([1,2,4]triazolo[1,5-a]pyridin-7-yloxy)-3-methylphenyl)amino)-2,3-dihydro-4H-[1,4]oxazino[2,3-f]quinazolin-4-yl)-4-(diethylamino)but-2-en-1-one] | ≤ 50 nM | 500 to 5000 nM | ≤ 50 nM

Further lines, results first:

IC50 (HER2 kinase) | IC50 (EGFR kinase) | IC50 (BT474 cells) | Compound
≤ 50 nM | ≤ 50 nM | ≤ 50 nM | CN(C)C/C=C/C(=O)N1CCOc2c1ccc1ncnc(Nc3ccc(Sc4ccc(F)cc4)cc3)c21 [Example 70, (E)-4-(dimethylamino)-1-(10-((4-((4-fluorophenyl)thio)phenyl)amino)-2,3-dihydro-4H-[1,4]oxazino[2,3-f]quinazolin-4-yl)but-2-en-1-one]
≤ 50 nM | 50 to 500 nM | ≤ 50 nM | Cc1cc(Nc2ncnc3ccc4c(c23)OCCN4C(=O)/C=C/CN(C)C)ccc1Oc1ccn2ncnc2c1 [Example 124, (E)-1-(10-((4-([1,2,4]triazolo[1,5-a]pyridin-7-yloxy)-3-methylphenyl)amino)-2,3-dihydro-4H-[1,4]oxazino[2,3-f]quinazolin-4-yl)-4-(dimethylamino)but-2-en-1-one]
≤ 50 nM | 50 to 500 nM | ≤ 50 nM | CN(C)C/C=C/C(=O)N1CCOc2c1ccc1ncnc(Nc3ccc(Oc4ccn5ncnc5c4)c(Cl)c3)c21 [Example 125, (E)-1-(10-((4-([1,2,4]triazolo[1,5-a]pyridin-7-yloxy)-3-chlorophenyl)amino)-2,3-dihydro-4H-[1,4]oxazino[2,3-f]quinazolin-4-yl)-4-(dimethylamino)but-2-en-1-one]
≤ 50 nM | ≤ 50 nM | ≤ 50 nM | CN1CCN(C/C=C/C(=O)N2CCOc3c2ccc2ncnc(Nc4ccc(Oc5ccn6ncnc6c5)c(Cl)c4)c32)CC1 [Example 126, (E)-1-(10-((4-([1,2,4]triazolo[1,5-a]pyridin-7-yloxy)-3-chlorophenyl)amino)-2,3-dihydro-4H-[1,4]oxazino[2,3-f]quinazolin-4-yl)-4-(4-methylpiperazin-1-yl)but-2-en-1-one]
≤ 50 nM | 50 to 500 nM | ≤ 50 nM | CC(C)N(C)C/C=C/C(=O)N1CCOc2c1ccc1ncnc(Nc3ccc(Oc4ccn5ncnc5c4)c(Cl)c3)c21 [Example 127, (E)-1-(10-((4-([1,2,4]triazolo[1,5-a]pyridin-7-yloxy)-3-chlorophenyl)amino)-2,3-dihydro-4H-[1,4]oxazino[2,3-f]quinazolin-4-yl)-4-(isopropyl(methyl)amino)but-2-en-1-one]
≤ 50 nM | 50 to 500 nM | ≤ 50 nM | O=C(/C=C/CN1CCCCC1)N1CCOc2c1ccc1ncnc(Nc3ccc(Oc4ccn5ncnc5c4)c(Cl)c3)c21 [Example 128, (E)-1-(10-((4-([1,2,4]triazolo[1,5-a]pyridin-7-yloxy)-3-chlorophenyl)amino)-2,3-dihydro-4H-[1,4]oxazino[2,3-f]quinazolin-4-yl)-4-(piperidin-1-yl)but-2-en-1-one]
